Assays:
human DHODH = molecular target: T1, human DHODH (Homo sapiens, UniProt Q02127); test: DHODH enzymatic assay - 1 (DCIP bleaching); assay type: biochemical; conditions: 2 nM DHODH, 1 mM dihydroorotate, 0.1 mM decylubiquinone, 0.06 mM DCIP, pH 8.0, 32 degree celsius; read-out: Target IC50
T1 construct: purchased Novus NBP1-98916
Procedure: The assay was conducted in buffer containing 50 mM Tris, 0.1% Triton X-100, 150 mM potassium chloride, 2 nM DHODH, 1 mM dihydroorotate, 0.1 mM decylubiquinone, 0.06 mM DCIP, and 2% DMSO at pH 8.0 at 32 degree celsius. The reaction was initiated by addition of substrates. Enzyme activity was monitored kinetically by the reduction in DCIP absorbance at 600 nm. Purified recombinant human DHODH enzyme was purchased from Novus (cat. no. NBP1-98916). Other chemicals were purchased from Sigma-Aldrich. Absorbance measurements were obtained using a BMG clarion star plate-reading spectrophotometer. Table 1: DHODH enzymatic assay : IC50 values of examples in in vitro assay 1

THP-1 cells = test: THP-1 proliferation assay - 1 (AML); assay type: cell-based; conditions: Homo sapiens, 72h incubation, CellTiter-Glo cell viability, read-out: Target IC50
Procedure: In vitro Assay 2: THP-1 proliferation assay - 1 (AML) 2000 cells/well of THP-1 cells were seeded in RPMI 1640 with Glutamax (Gibco, #11875-093) and 10% fetal calf serum (Biochrom, #S0615) in 384-well plates. The next day, cells were incubated with different concentrations of test compounds for 72h. Cellular viability was analyzed using CellTiter-Glo® Luminescent Cell Viability Assay (Promega, #G7570) according to manufacturer's instructions.

T1 sequence (Q02127 whole entry): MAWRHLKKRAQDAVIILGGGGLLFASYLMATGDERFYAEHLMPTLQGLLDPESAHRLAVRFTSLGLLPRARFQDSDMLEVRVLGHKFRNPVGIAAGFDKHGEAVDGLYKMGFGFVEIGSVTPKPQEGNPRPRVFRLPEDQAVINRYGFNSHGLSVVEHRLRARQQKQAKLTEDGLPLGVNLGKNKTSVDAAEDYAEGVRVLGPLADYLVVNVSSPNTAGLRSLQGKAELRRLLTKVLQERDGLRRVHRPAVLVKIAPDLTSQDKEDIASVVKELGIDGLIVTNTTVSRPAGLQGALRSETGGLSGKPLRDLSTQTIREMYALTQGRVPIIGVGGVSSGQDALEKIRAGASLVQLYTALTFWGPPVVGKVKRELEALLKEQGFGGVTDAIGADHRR

CCCCOc1cc(-n2nc(-c3ccccc3Cl)[nH]c2=O)c(F)cc1C(=O)Nc1c(F)cccc1Cl [Compound I, 2-butoxy-N-(2-chloro-6-fluorophenyl)-4-[3-(2-chlorophenyl)-5-oxo-4,5-dihydro-1H-1,2,4-triazol-1-yl]-5-fluorobenzamide]
IC50 (human DHODH): 3000 nM
IC50 (THP-1 cells): 305 nM

— patent EP3553052A1, “5-OXO-4,5-DIHYDRO-1H-1,2,4-TRIAZOL DERIVATIVES FOR THE TREATMENT OF CANCER” (Bayer AG, priority 2018, dated 2019)
